Data: ChEMBL document CHEMBL1132462, “Molecular modeling studies on G-quadruplex complexes of telomerase inhibitors: structure-activity relationships” (J Med Chem, 1999)

Target: Telomerase reverse transcriptase (Homo sapiens, UniProt O14746)
Assay: Inhibitory activity against Telomerase evaluated by TRAP Assay studies.

Chain of Telomerase reverse transcriptase (O14746 whole entry): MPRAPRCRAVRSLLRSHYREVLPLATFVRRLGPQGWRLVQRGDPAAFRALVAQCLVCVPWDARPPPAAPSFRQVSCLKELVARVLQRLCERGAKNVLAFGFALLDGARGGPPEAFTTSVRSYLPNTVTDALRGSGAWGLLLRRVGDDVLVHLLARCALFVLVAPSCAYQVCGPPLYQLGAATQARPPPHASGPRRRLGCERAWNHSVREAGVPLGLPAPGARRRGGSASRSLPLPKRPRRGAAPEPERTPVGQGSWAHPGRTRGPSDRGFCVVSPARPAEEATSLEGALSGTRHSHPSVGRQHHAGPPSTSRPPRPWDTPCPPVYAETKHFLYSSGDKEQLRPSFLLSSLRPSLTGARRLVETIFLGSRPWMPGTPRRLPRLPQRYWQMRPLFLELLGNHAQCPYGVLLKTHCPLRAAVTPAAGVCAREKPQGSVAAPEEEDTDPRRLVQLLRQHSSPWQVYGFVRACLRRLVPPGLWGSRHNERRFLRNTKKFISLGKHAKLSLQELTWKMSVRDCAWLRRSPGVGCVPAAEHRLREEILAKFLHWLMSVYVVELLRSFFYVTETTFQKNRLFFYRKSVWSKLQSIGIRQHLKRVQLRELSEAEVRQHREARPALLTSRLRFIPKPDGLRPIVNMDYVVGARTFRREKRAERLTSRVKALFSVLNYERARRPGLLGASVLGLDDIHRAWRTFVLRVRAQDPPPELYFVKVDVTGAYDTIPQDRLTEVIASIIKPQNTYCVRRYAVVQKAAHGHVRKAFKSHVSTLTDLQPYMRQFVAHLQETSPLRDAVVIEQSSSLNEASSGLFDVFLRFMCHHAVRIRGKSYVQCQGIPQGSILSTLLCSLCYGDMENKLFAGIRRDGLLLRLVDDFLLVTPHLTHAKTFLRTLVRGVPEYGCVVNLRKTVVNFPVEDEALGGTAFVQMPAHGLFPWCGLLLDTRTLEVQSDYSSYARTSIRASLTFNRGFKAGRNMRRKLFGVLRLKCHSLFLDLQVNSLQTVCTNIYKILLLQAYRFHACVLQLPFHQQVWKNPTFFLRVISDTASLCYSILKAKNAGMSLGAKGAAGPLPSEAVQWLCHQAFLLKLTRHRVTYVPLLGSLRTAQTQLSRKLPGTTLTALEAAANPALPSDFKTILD

IC50 [µM] | Compound
13 | O=C(CCN1CCCCCC1)Nc1ccc2c(c1)C(=O)c1ccc(NC(=O)CCN3CCCCCC3)cc1C2=O
> 50 | O=C(CCN1CCCCCCC1)Nc1ccc2c(c1)C(=O)c1ccc(NC(=O)CCN3CCCCCCC3)cc1C2=O
> 50 | CC1(C)CC2CC(C)(CN2CCC(=O)Nc2ccc3c(c2)C(=O)c2ccc(NC(=O)CCN4CC5(C)CC4CC(C)(C)C5)cc2C3=O)C1
